# Test results: CN109096271A, “噻吩类化合物及其作为usp7抑制剂和抗肿瘤药物的应用” (China Pharmaceutical University, priority 2018, dated 2018)
# Experiments:
# [1] = target: T1, full-length USP7 enzyme [全长USP7酶] (Homo sapiens, UniProt Q93009); assay: Inhibition of full-length USP7 enzyme in vitro (Ub-AMC method); format: biochemical; conditions: half-maximal inhibitory concentration; full-length USP7, Ub-AMC substrate, 30 min preincubation at room temperature (25℃), 2 h reaction, pH 7.6; read-out: EC50 (the source's name)
# T1 construct: 全长USP7蛋白,Ub-AMC底物蛋白,实验缓冲液
# [2] = tested on: human colon cancer cells HCT-116 [人结肠癌细胞HCT-116]; assay: Antiproliferative activity on human colon cancer HCT-116 cells (MTT staining); format: cell-based; conditions: HCT-116 wild type, 72 h
# T1 sequence (Q93009 whole entry): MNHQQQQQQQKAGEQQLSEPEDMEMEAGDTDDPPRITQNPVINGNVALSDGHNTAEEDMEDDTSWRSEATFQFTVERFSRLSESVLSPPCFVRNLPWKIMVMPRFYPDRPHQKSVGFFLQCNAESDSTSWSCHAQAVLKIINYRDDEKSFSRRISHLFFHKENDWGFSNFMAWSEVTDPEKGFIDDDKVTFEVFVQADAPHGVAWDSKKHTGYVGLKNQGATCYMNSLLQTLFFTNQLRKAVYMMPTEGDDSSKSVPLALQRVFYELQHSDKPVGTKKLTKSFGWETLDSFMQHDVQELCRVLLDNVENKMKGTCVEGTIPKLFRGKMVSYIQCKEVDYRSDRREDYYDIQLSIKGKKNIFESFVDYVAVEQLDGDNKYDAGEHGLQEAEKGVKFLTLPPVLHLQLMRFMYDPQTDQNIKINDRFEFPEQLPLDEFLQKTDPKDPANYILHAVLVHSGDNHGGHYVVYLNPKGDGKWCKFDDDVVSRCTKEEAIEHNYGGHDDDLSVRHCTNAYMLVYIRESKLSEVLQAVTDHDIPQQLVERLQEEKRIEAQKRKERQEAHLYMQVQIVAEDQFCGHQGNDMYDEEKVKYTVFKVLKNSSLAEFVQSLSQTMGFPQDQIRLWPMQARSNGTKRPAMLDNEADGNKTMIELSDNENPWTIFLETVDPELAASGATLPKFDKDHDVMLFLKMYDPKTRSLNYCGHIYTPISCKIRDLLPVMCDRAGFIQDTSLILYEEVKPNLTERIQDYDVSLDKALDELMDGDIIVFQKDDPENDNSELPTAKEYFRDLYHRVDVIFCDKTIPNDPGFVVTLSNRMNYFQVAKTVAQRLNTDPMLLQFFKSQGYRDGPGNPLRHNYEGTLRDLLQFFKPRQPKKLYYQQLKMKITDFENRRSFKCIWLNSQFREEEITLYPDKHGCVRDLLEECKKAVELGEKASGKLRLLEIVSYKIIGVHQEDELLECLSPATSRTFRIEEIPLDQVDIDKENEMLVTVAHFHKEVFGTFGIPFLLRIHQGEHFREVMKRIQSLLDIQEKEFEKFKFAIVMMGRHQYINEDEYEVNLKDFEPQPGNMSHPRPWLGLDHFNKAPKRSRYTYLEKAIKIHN
IC50 [1] [µM],IC50 ([2]; Homo sapiens) [µM],IC50 [2] [µM],Molecule
3.65,4.74,–,"CN1CCN(CC(=O)NCc2ccc(NC(=O)c3cc([N+](=O)[O-])c(Sc4c(Cl)cncc4Cl)s3)cc2)CC1 [I-14, ((3,5-二氯吡啶-4-基)硫基)-N-(4-((2-(4-甲基哌嗪-1-基)乙酰氨基)甲基) 苯基)-4-硝基噻吩-2-甲酰胺]"
7.26,4.87,–,"CN1CCN(CC(=O)Nc2ccc(NC(=O)c3cc([N+](=O)[O-])c(Sc4c(Cl)cncc4Cl)s3)cc2)CC1 [I-15, 5-((3,5-二氯吡啶-4-基)硫基)-N-(4-(2-(4-甲基哌嗪-1-基)乙酰氨基)苯 基)-4-硝基噻吩-2-甲酰胺]"
4.59,4.82,–,"O=C(NCCN1CCOCC1)c1cc([N+](=O)[O-])c(Sc2c(Cl)cncc2Cl)s1 [I-16, 5-((3,5-二氯吡啶-4-基)硫基)-N-(2-吗啉代乙基)-4-硝基噻吩-2-甲酰胺]"
6.59,8.53,–,"CN(C)CCN1CCN(C(=O)c2cc([N+](=O)[O-])c(Sc3c(Cl)cncc3Cl)s2)CC1 [I-17, (5-((3,5-二氯吡啶-4-基)硫基)-4-硝基噻吩-2-基)(4-(2-(二甲基氨基)乙 基)哌嗪-1-基)甲酮]"
> 50,> 50,–,"O=C(NCCc1ccc2c(c1)OCO2)c1cc([N+](=O)[O-])c(Sc2c(Cl)cncc2Cl)s1 [I-18, N-(2-(苯并[d][1,3]二氧杂环戊烯-5-基)乙基)-5-((3,5-二氯吡啶-4-基)硫基)-4-硝基噻吩-2-甲酰胺]"

# More lines, now with the values behind:
Molecule,IC50 [1] [µM],IC50 ([2]; Homo sapiens) [µM],IC50 [2] [µM]
"CC1CS(=O)(=O)c2cc(NC(=O)c3cc([N+](=O)[O-])c(Sc4c(Cl)cncc4Cl)o3)ccc21 (stereo not shown) [I-1, 5-((3,5-二氯吡啶-4-基)硫基)-N-(3-甲基-1,1-二氧代-2,3-二氢苯并[b]噻吩-6-基)-4-硝基呋喃-2-甲酰胺]",> 50,> 50,–
"CC1CS(=O)(=O)c2cc(NC(=O)c3cc([N+](=O)[O-])c(Sc4c(Cl)cncc4Cl)[nH]3)ccc21 (stereo not shown) [I-2, 5-((3,5-二氯吡啶-4-基)硫基)-N-(3-甲基-1,1-二氧代-2,3-二氢苯并[b]噻吩-6-基)-4-硝基-1H-吡咯-2-甲酰胺]",> 50,> 50,–
"CC1CS(=O)(=O)c2cc(NC(=O)c3cc([N+](=O)[O-])c(Sc4c(Cl)cncc4Cl)n3C)ccc21 (stereo not shown) [I-3, 5-((3,5-二氯吡啶-4-基)硫基)-1-甲基-N-(3-甲基-1,1-二氧代-2,3-二氢苯并[b] 噻吩-6-基)-4-硝基-1H-吡咯-2-甲酰胺]",> 50,> 50,–
"CN1CCC(Oc2ccc(NC(=O)c3cc([N+](=O)[O-])c(Sc4c(Cl)cncc4Cl)s3)cc2)C1 (stereo not shown) [I-4, 5-((3,5-二氯吡啶-4-基)硫基)-N-(4-((1-甲基吡咯烷-3-基)氧基)苯基) -4-硝基噻吩-2-甲酰胺]",4.45,2.65,–
"CN1CCC(Oc2ccc(NC(=O)c3cc([N+](=O)[O-])c(Sc4c(Cl)cncc4Cl)s3)cc2)CC1 [I-5, 5-((3,5-二氯吡啶-4-基)硫基)-N-(4-((1-甲基哌啶-4-基)氧基)苯基)-4-硝基噻吩-2-甲酰胺]",2.85,2.39,–
"CN1CCCC(Oc2ccc(NC(=O)c3cc([N+](=O)[O-])c(Sc4c(Cl)cncc4Cl)s3)cc2)CC1 (stereo not shown) [I-6, 5-((3,5-二氯吡啶-4-基)硫基)-N-(4-((1-甲基吖庚烷-4-基)氧基)苯基)-4-硝基噻吩-2-甲酰胺]",4.56,1.98,–
"CN1CCCN(c2ccc(NC(=O)c3cc([N+](=O)[O-])c(Sc4c(Cl)cncc4Cl)s3)cc2)CC1 [I-7, 5-((3,5-二氯吡啶-4-基)硫基)-N-(4-(4-甲基-1,4-二氮杂环庚烷-1-基)苯基)-4-硝基噻吩-2-甲酰胺]",6.9,3.48,–
"CS(=O)(=O)N1CCN(c2ccc(NC(=O)c3cc([N+](=O)[O-])c(Sc4c(Cl)cncc4Cl)s3)cc2)CC1 [I-9, 5-((3,5-二氯吡啶-4-基)硫基)-N-(4-(4-(甲基磺酰基)哌嗪-1-基)苯基) -4-硝基噻吩-2-甲酰胺]",42.5,2.99,–
"CN1CCN(C(=O)c2ccc(NC(=O)c3cc([N+](=O)[O-])c(Sc4c(Cl)cncc4Cl)s3)cc2)CC1 [I-10, 5-((3,5-二氯吡啶-4-基)硫基)-N-(4-(4-甲基哌嗪-1-羰基)苯基)-4-硝基噻吩-2-甲酰胺]",2.96,3.36,–
"CN(C)CCN1CCN(C(=O)c2ccc(NC(=O)c3cc([N+](=O)[O-])c(Sc4c(Cl)cncc4Cl)s3)cc2)CC1 [I-11, 5-((3,5-二氯吡啶-4-基)硫基)-N-(4-(4-(2-(二甲基氨基)乙基)哌嗪-1-羰基)苯基)-4-硝基噻吩-2-甲酰胺]",2.5,7.63,–
"O=C(NCCN1CCOCC1)c1ccc(NC(=O)c2cc([N+](=O)[O-])c(Sc3c(Cl)cncc3Cl)s2)cc1 [I-12, ((3,5-二氯吡啶-4-基)硫基)-N-(4-((2-吗啉代乙基)氨基甲酰基)苯基)-4-硝基噻吩-2-甲酰胺]",1.18,1.82,–
"((3,5-二氯吡啶-4-基)硫基)-N-(4-((2-(4-甲基哌嗪-1-基)乙酰氨基)甲基) 苯基)-4-硝基噻吩-2-甲酰胺 [I-13]",3.71,–,3.26
